From PubChem BioAssay (NCI)
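Results reflect a 48-hour exposure of cells in 96-well plates to compound at five concentrations. TGI: total growth inhibition.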

Experiments:
Assay in all cases: NCI anticancer screen, dose series, 48 h
MDA-MB-231 breast = system: MDA-MB-231 breast
786-0 renal = system: 786-0 renal
HCT-15 colon = system: HCT-15 colon
SF-295 CNS = system: SF-295 CNS
SN12C renal = system: SN12C renal
MALME-3M melanoma = system: MALME-3M melanoma
SK-MEL-28 melanoma = system: SK-MEL-28 melanoma
OVCAR-4 ovarian = system: OVCAR-4 ovarian
SK-MEL-5 melanoma = system: SK-MEL-5 melanoma
NCI-H522 lung = system: NCI-H522 lung

Row | SMILES | TGI (MDA-MB-231 breast) [µM] | TGI (786-0 renal) [µM] | TGI (HCT-15 colon) [µM] | TGI (SF-295 CNS) [µM] | TGI (SN12C renal) [µM] | TGI (MALME-3M melanoma) [µM] | TGI (SK-MEL-28 melanoma) [µM] | TGI (OVCAR-4 ovarian) [µM] | TGI (SK-MEL-5 melanoma) [µM] | TGI (NCI-H522 lung) [µM]
1 | Cc1ccc2nc(-c3ccc(N4C(=O)C(Cl)C4c4ccc(Cl)cc4)cc3)sc2c1 (stereo not given) | 33 | 56.9 | 81.5 | 32.1 | 53.6 | > 100 | 31.5 | 8.38 | 28.2 | 
2 | CCOC(=O)CC(=O)Nc1cccc2[nH]cnc12 | > 100 | > 100 | > 100 | > 100 | > 100 | > 100 | > 100 | > 100 | > 100 | 
3 | CC(C)C(/C=C/c1ccc(Cl)c(Cl)c1)=N\NC(=O)N/N=C(/C=C/c1ccc(Cl)c(Cl)c1)C(C)C | > 100 | > 100 | > 100 | > 100 | > 100 | > 100 | > 100 | > 100 | > 100 | > 100
4 | CCOP(=O)(OCC)C(C#N)Cc1ccco1 (stereo not given) | > 10 | > 10 | > 10 | > 10 | > 10 | > 10 | > 10 | > 10 | > 10 | 
5 | O=c1c(=O)c2c(Br)sc(Br)c2c1=O |  | 56.5 | 40.1 | > 100 | 31.6 | 31.8 | 28.7 | 31.2 | 31.8 | 32
6 | CCOC(=O)/C(C#N)=C/c1ccnc2ccccc12 | > 100 | > 100 | > 100 | > 100 | > 100 | > 100 | > 100 | > 100 | > 100 | > 100
7 | FC(F)(F)c1cccc(-c2nc3ccccc3c3c2[C@@]2(N4CCCC4)CCCC[C@@H]32)c1 | 49.3 | > 100 |  | 74.7 | > 100 | > 100 |  | > 100 | 30.4 | 31.8
8 | Clc1ccc(C(SCc2ccccc2)SCc2ccccc2)cc1 | > 10 | > 10 | > 10 | > 10 | > 10 | > 10 | > 10 | > 10 | > 10 | > 10
9 | O=[N+]([O-])c1cc2c(cc1/C=N/n1c(CO)nc3ccccc31)OCO2 | > 100 | > 100 | > 100 | > 100 | > 100 | > 100 | > 100 | > 100 | > 100 | 
10 | C[N+]1(CCCl)CC[N+](C)(CCCl)CC1 (stereo not given) | > 100 | > 100 | > 100 | > 100 | > 100 | > 100 | > 100 | > 100 | > 100 | 
11 | CCCCCCCCCCCCCCCC(=O)N(CCCCCCCCCCC(=O)O)CC(O)C(O)C(OC1OC(CO)C(O)C(O)C1O)C(O)CO (stereo not given) | > 100 | > 100 | > 100 | 33.4 | 40.1 | 36.3 | 34.6 | > 100 | > 100 | > 100
12 | CC[C@H]1C=CCC[C@@]2(C[C@@H]3CC[C@H]4[C@@H](C(=O)OCCCCCCCCCCCCCCCC(=O)N(CCCN)C[C@@H](O)CCN)[C@@]5(CCC[C@@H](C)O5)NC(=[N+]34)N2)O1 |  | 3.3 | > 10 | 3.68 | 9.33 | 3.24 | 2.88 | > 10 | 2.87 | 3.07
13 | Cc1ccc(NC(=O)CSc2nc(=O)[nH]c3nc[nH]c23)cc1 | > 100 | > 100 | > 100 | > 100 | > 100 | > 100 | > 100 | > 100 | > 100 | > 100
14 | O=C1c2cc(Cl)ccc2NC(=NCCCl)C2CSCN12 (stereo not given) | > 100 | > 100 | > 100 | > 100 | > 100 | > 100 | > 100 | > 100 | > 100 | > 100
15 | CCNC(=O)c1c(O)c2ccccc2[nH]c1=O | > 100 | > 100 | > 100 | > 100 | > 100 | > 100 | > 100 | > 100 | > 100 | > 100
16 | CCOC(=O)CNc1nc(=O)c2c(=O)oc(Cl)cc2o1 | 59.1 | 21.9 | 23.7 | > 100 | 53.1 | 23.5 | 63.7 | 34.3 | > 100 | 17.3
17 | C=C1C(=O)O[C@@H]2C=C(C)C3=CC(=O)[C@](C)(C[C@H](OC(=O)/C(C)=C\C)[C@@H]12)O3 | 2.24 | 1.54 | 2.06 | 6.47 | 5.1 | 7.5 | 3.03 |  | 2.03 | 0.394
18 | CN(C)C(=O)OC(Cn1cncn1)(Cn1cncn1)c1ccc(Cl)cc1Cl | > 100 | > 100 | > 100 | > 100 |  |  | > 100 | > 100 | > 100 | > 100
19 | COc1cc2cc(C(=O)N3CC(CCl)c4c3cc(N)c3ccccc43)[nH]c2c(OC)c1OC (stereo not given) | 0.519 | 0.0102 | 1.58 |  | < 0.01 | < 0.01 |  | < 0.045 |  | < 0.01
20 | Cc1csc(/N=C\c2c(O)c3ccccc3oc2=O)n1 | 34.7 | > 100 | > 100 |  |  | 70.3 |  | > 100 | > 100 | > 100
21 | CCOP(=O)(OCC)C(N)c1ccc(Cl)cc1 (stereo not given) | > 100 | > 100 | > 100 |  | > 100 | > 100 | > 100 | > 100 | > 100 | > 100
22 | C=C1C(=O)O[C@H]2[C@@H](O)[C@H](C)CCC[C@]3(C)O[C@H]3CC[C@@]3(C)O[C@@H]3C[C@@H]12 | 10.8 | 12.5 | 4.74 | 15.6 | 13.2 |  | 8.91 | 9.85 | 10.5 | 2.85
